# Assay results as given in patent publication US20170008888A1 (KYORIN PHARMACEUTICAL CO., LTD., priority 2014, published 2017).
# Like-named read-outs stand apart in the source and are kept apart here.
# Columns and labels:
# ABL or ARG = assay: Probe-based (AX9989) kinase profiling in Jurkat lysate: ABL or ARG; type: binding; settings: for ABL or ARG Inhibition % at indicated screening concentration: screening concentration 1 μM
# How it was run: (§1)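 Compounds were pre-incubated for 15 min at room temperature with gel-filtered Jurkat cell lysate supplemented with 20 mM MnCl2, after which the acyl phosphate ATP probe AX9989 was added at 5 μM final. Labeled active-site peptides were enriched after tryptic digestion and measured by LC/MS, with percent inhibition taken relative to samples without compound.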
# JAK1 = target: T1, JAK1 (Homo sapiens, UniProt P23458); assay: Probe-based (AX9989) kinase profiling in Jurkat lysate: JAK1; type: binding; settings: for inhibition at 0.1 µM: screening concentration 0.1 μM
# T1 construct: screened for activity against several kinases in Jurkat cells; endogenous in cells; host or cells: Jurkat cell lysate
# How it was run: as §1
# AurA = target: T2, AurA (Homo sapiens, UniProt O14965); assay: Probe-based (AX9989) kinase profiling in Jurkat lysate: AurA; type: binding; settings: for inhibition at 0.1 µM: screening concentration 0.1 μM
# T2 construct: screened for activity against several kinases in Jurkat cells; endogenous in cells; host or cells: Jurkat cell lysate
# T2 sequence (O14965 1-403): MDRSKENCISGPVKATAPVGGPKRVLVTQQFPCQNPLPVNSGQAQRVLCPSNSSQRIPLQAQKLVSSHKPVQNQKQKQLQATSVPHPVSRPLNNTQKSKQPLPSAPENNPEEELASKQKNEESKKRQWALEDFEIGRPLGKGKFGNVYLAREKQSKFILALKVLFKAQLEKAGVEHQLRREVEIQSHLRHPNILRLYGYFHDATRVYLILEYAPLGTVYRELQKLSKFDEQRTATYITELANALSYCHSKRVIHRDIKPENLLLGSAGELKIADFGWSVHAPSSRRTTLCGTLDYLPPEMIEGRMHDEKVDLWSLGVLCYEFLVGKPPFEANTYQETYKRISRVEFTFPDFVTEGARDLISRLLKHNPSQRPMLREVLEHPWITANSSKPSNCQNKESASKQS
# How it was run: as §1
# human PBMCs = assay: Human PBMC TNF-α response to endotoxin (ELISA); type: cell-based; settings: 0.1 μg/ml LPS 16 h, read-out: EC50 for the inhibition of the human PBMC TNF-α response to endotoxin, ave. ± S.D.
# How it was run: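 PBMCs at 2e6 cells/ml in RPMI 1640 with 10% charcoal-dextran-treated FBS were pre-treated 1 h at 37 °C with compound (4-point 1:5 dilution from 10 μM). Stimulation with 0.1 μg/ml E. coli 0111:B4 LPS for 16 h; TNF-α measured by ELISA (A450) in 25-fold diluted supernatant.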
# ERK5 = target: T3, ERK5 (Homo sapiens, UniProt Q13164); assay: Probe-based (AX9989 acyl phosphate ATP probe) kinase profiling in Jurkat lysate: ERK5; type: binding; settings: for IC50: Jurkat lysate; for inhibition at 0.1 µM: screening concentration 0.1 μM
# T3 construct: screened for activity against several kinases in Jurkat cells; endogenous in cells; host or cells: Jurkat cell lysate
# How it was run: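 Gel-filtered Jurkat lysate (5 mg/ml, 20 mM MnCl2) preincubated 15 min at room temperature with compound, then labelled with 5 μM AX9989 acyl phosphate ATP probe. Probe-labelled ERK5 active-site peptides quantified by LC/MS after trypsin digestion and streptavidin capture; IC50 calculated from percent inhibition at the screening concentration.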
# AMPKa1 or AMPKa2 = assay: Probe-based (AX9989) kinase profiling in Jurkat lysate: AMPKa1 or AMPKa2; type: binding; settings: for AMPKa1 or AMPKa2 Inhibition % at indicated screening concentration: screening concentration 1 μM
# How it was run: as §1
# ACK = target: T4, ACK (Homo sapiens, UniProt Q07912); assay: Probe-based (AX9989) kinase profiling in Jurkat lysate: ACK; type: binding; settings: for inhibition at 0.1 µM: screening concentration 0.1 μM
# T4 construct: screened for activity against several kinases in Jurkat cells; endogenous in cells; host or cells: Jurkat cell lysate
# How it was run: as §1
# TAO2 = target: T5, TAO2 (Homo sapiens, UniProt Q9UL54); assay: Probe-based (AX9989) kinase profiling in Jurkat lysate: TAO2; type: binding; settings: for inhibition at 0.1 µM: screening concentration 0.1 μM
# T5 construct: screened for activity against several kinases in Jurkat cells; endogenous in cells; host or cells: Jurkat cell lysate
# T5 sequence (Q9UL54 1-1235): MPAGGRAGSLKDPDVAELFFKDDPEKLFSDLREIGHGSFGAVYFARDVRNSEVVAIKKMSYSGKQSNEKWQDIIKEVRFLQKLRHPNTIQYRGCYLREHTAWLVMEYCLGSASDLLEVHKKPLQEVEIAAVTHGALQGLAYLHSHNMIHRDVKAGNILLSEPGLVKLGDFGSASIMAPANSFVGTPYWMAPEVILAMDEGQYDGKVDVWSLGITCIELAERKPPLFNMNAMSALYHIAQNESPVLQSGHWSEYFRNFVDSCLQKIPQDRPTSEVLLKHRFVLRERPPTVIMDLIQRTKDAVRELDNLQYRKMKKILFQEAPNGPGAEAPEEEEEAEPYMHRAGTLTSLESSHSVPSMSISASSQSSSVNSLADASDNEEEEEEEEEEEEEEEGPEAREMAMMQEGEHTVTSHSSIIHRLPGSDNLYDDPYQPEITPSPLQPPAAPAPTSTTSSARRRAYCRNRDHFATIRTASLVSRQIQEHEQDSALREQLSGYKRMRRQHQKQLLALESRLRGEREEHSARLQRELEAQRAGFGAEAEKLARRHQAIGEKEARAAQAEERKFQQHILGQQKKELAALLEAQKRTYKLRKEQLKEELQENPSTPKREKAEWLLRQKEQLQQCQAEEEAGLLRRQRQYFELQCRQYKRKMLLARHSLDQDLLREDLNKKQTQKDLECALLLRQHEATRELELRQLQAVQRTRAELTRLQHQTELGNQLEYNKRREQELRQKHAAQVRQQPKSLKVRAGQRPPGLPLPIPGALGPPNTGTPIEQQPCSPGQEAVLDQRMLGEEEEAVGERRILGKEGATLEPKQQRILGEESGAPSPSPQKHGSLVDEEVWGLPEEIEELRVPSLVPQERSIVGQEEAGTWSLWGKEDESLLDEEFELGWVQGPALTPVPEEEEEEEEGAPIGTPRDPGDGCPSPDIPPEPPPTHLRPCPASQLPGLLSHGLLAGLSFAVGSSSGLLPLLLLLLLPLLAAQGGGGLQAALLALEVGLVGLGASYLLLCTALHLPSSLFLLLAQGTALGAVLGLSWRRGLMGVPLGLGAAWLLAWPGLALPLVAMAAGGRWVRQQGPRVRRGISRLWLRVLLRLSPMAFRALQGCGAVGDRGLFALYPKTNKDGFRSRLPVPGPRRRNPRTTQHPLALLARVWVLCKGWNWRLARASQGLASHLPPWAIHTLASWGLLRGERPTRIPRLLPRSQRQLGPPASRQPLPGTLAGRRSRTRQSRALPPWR
# How it was run: as §1
# AurB or AurC = assay: Probe-based (AX9989) kinase profiling in Jurkat lysate: AurB or AurC; type: binding; settings: for AurB or AurC Inhibition % at indicated screening concentration: screening concentration 1 μM
# How it was run: as §1
# [1] = screening concentration 1 μM, read-out: JAK1 Inhibition % at indicated screening concentration
# [2] = screening concentration 1 μM, read-out: AurA Inhibition % at indicated screening concentration
# [3] = calculated from percent inhibition and screening concentration, AX9989 probe
# [4] = screening concentration 1 μM, read-out: ERK5 Inhibition % at indicated screening concentration
# [5] = screening concentration 1 μM, read-out: ACK Inhibition % at indicated screening concentration
# [6] = screening concentration 1 μM, read-out: TAO2 Inhibition % at indicated screening concentration
# [7] = screening concentration 1.0 μM, read-out: Kinase inhibition % at indicated screening concentration: JAK1
# [8] = screening concentration 1.0 μM, read-out: Kinase inhibition % at indicated screening concentration: AurA
# [9] = calculated from percent inhibition of AX9989 labeling and the screening concentration
# [10] = screening concentration 1.0 μM, read-out: Kinase inhibition % at indicated screening concentration: ERK5
# [11] = screening concentration 1.0 μM, read-out: Kinase inhibition % at indicated screening concentration: ACK
# [12] = screening concentration 1.0 μM, read-out: Kinase inhibition % at indicated screening concentration: TAO2
# [13] = read-out: Kinase inhibition % at indicated screening concentration: JAK1
# [14] = read-out: Kinase inhibition % at indicated screening concentration: AurA
# [15] = read-out: Kinase inhibition % at indicated screening concentration: ERK5
# [16] = read-out: Kinase inhibition % at indicated screening concentration: ACK
# [17] = read-out: Kinase inhibition % at indicated screening concentration: TAO2
# T4 sequence (Q07912 whole entry): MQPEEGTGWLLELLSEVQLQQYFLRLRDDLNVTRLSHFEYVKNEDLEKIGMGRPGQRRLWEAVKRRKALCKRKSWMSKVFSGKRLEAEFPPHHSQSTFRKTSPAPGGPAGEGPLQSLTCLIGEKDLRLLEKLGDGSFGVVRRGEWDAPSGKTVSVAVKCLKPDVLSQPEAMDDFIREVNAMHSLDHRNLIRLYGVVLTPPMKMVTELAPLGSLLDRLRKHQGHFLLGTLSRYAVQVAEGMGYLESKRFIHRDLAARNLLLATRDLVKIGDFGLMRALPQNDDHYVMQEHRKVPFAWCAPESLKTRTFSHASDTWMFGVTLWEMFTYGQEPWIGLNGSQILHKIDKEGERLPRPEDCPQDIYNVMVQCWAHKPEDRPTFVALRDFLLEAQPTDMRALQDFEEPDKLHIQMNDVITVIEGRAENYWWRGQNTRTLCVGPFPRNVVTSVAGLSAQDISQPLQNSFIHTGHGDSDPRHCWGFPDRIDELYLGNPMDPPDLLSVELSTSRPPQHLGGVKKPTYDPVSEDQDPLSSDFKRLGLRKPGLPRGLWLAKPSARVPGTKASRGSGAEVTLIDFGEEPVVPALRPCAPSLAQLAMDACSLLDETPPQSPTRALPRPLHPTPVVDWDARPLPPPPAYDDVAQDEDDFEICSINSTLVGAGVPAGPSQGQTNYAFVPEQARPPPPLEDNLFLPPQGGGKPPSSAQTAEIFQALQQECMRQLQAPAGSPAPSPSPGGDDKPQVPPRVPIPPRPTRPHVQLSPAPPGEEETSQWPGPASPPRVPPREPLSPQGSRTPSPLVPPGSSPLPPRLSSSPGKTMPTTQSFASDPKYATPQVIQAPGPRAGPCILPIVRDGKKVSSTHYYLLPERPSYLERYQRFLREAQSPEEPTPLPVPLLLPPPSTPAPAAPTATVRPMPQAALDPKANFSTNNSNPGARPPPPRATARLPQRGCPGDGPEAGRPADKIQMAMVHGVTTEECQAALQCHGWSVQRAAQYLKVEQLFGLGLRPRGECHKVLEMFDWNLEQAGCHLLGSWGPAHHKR
# T3 sequence (Q13164 whole entry): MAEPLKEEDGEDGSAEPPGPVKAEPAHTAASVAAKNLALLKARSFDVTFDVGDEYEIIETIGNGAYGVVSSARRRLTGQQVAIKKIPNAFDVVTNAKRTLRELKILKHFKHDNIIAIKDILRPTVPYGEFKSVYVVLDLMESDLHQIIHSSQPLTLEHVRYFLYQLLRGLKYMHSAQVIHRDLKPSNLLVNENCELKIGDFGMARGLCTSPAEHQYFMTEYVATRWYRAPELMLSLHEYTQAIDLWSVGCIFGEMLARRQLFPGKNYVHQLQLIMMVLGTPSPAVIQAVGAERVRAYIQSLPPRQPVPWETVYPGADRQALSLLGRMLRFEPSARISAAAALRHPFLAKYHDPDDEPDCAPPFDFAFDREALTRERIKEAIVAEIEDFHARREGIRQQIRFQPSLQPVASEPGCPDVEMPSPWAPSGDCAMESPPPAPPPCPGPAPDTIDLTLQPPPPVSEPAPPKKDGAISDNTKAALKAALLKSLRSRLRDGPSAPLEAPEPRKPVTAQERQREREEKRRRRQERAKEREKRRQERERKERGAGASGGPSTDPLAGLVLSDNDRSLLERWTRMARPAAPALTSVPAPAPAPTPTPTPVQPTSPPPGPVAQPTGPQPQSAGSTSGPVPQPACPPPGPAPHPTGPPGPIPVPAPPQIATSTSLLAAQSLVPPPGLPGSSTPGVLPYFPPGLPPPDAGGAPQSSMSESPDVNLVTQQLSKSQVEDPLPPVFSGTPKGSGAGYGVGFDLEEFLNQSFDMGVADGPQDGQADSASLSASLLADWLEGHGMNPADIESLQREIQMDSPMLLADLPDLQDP
# T1 sequence (P23458 whole entry): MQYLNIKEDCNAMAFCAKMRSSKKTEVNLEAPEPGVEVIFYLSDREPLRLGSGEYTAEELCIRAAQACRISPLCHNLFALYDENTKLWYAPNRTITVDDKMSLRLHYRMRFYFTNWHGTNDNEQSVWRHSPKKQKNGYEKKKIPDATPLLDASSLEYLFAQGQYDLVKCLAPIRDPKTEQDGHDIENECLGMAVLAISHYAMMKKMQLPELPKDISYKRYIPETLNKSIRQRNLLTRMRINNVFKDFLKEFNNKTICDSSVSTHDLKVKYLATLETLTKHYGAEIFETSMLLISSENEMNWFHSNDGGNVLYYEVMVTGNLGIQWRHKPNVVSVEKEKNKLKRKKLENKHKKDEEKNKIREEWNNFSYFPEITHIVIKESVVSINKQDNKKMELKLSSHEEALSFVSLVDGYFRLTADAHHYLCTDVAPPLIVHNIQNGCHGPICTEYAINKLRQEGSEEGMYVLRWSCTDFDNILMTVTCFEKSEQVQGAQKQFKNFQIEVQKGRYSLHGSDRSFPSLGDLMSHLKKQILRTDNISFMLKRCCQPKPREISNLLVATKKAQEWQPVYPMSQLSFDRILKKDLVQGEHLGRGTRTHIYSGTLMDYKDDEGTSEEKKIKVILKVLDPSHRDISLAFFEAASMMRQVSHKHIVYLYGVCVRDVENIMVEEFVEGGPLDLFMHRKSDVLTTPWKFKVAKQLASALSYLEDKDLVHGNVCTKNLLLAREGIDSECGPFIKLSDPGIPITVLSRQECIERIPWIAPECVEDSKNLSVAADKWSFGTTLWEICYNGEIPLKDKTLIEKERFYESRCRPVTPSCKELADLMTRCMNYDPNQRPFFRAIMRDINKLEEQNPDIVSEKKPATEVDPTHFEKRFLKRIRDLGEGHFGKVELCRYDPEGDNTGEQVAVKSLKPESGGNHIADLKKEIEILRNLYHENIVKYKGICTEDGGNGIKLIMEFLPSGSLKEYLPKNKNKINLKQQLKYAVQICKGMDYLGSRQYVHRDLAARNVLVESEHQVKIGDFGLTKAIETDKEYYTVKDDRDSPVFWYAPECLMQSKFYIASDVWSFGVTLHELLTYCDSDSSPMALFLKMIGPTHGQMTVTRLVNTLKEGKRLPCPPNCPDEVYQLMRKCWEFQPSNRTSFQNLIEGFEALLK
SMILES,ABL or ARG Inhibition % at indicated screening concentration (ABL or ARG),inhibition at 1 µM (JAK1; [1]),inhibition at 1 µM (AurA; [2]),EC50 (human PBMCs),IC50 (ERK5; [3]),inhibition at 1 µM (ERK5; [4]),AMPKa1 or AMPKa2 Inhibition % at indicated screening concentration (AMPKa1 or AMPKa2),inhibition at 1 µM (ACK; [5]),inhibition at 1 µM (TAO2; [6]),AurB or AurC Inhibition % at indicated screening concentration (AurB or AurC),Kinase inhibition % at indicated screening concentration: ABL or ARG (ABL or ARG; screening concentration 1.0 μM),inhibition at 1 µM (JAK1; [7]),inhibition at 1 µM (AurA; [8]),IC50 (ERK5; [9]),inhibition at 1 µM (ERK5; [10]),Kinase inhibition % at indicated screening concentration: AMPKa1 or AMPKa2 (AMPKa1 or AMPKa2; screening concentration 1.0 μM),inhibition at 1 µM (ACK; [11]),inhibition at 1 µM (TAO2; [12]),Kinase inhibition % at indicated screening concentration: AurB or AurC (AurB or AurC; screening concentration 1.0 μM),further results
CN1CCN([C@@H]2CCN(C(=O)c3ccc(Nc4cc5c(cn4)N(C)C(=O)c4ccccc4N5C)c(F)c3)C2)CC1 [Compound T69],E (E is ≦35%),≤ 35%,≤ 35%,3480 nM,≤ 50 nM,> 90%,E (E is ≦35%),35 to 50%,≤ 35%,E (E is ≦35%),–,–,–,–,–,–,–,–,–,–
CCOc1cc(C(=O)N2CCN(C(C)=O)CC2)ccc1Nc1cc2c(cn1)N(C)C(=O)c1scnc1N2C [Compound T73],E (E is ≦35%),≤ 35%,≤ 35%,> 10000 nM,> 500 nM,35 to 50%,E (E is ≦35%),≤ 35%,≤ 35%,E (E is ≦35%),–,–,–,–,–,–,–,–,–,–
COc1cccnc1Nc1cc2c(cn1)N(C)C(=O)c1ccccc1N2C [Compound 14],–,–,–,2850 nM,–,–,–,–,–,–,E (E is ≦35%),≤ 35%,≤ 35%,> 500 nM,> 90%,E (E is ≦35%),≤ 35%,≤ 35%,E (E is ≦35%),–
CCOc1cc(C(=O)N2CCN(C(C)=O)CC2)ccc1Nc1cc2c(cn1)N(C)C(=O)c1ccccc1N2C1CC1 [Compound T67],E (E is ≦35%),≤ 35%,≤ 35%,4900 nM,≤ 50 nM,> 90%,E (E is ≦35%),35 to 50%,≤ 35%,E (E is ≦35%),–,–,–,–,–,–,–,–,–,–
CCOc1cc(C(=O)N2CCC(c3c[nH]cn3)CC2)ccc1Nc1cc2c(cn1)N(C)C(=O)c1ccccc1N2C [Compound 35],–,–,–,6000 nM,–,–,–,–,–,–,–,–,–,101 to 500 nM,–,–,–,–,–,Kinase inhibition % at indicated screening concentration: ABL or ARG (ABL or ARG; screening concentration 0.1 μM): E (E is ≦35%); inhibition at 0.1 µM (JAK1; [13]): ≤ 35%; inhibition at 0.1 µM (AurA; [14]): ≤ 35%; inhibition at 0.1 µM (ERK5; [15]): 35 to 50%; Kinase inhibition % at indicated screening concentration: AMPKa1 or AMPKa2 (AMPKa1 or AMPKa2; screening concentration 0.1 μM): E (E is ≦35%); inhibition at 0.1 µM (ACK; [16]): ≤ 35%; inhibition at 0.1 µM (TAO2; [17]): ≤ 35%; Kinase inhibition % at indicated screening concentration: AurB or AurC (AurB or AurC; screening concentration 0.1 μM): E (E is ≦35%)
COc1cc(C)c(Nc2cc3c(cn2)N(C)C(=O)c2ccccc2N3C)cn1 [Compound 116],–,–,–,4370 nM,–,–,–,–,–,–,E (E is ≦35%),≤ 35%,≤ 35%,> 500 nM,50 to 75%,E (E is ≦35%),≤ 35%,≤ 35%,E (E is ≦35%),–
Cc1cc(C(=O)N2CC[C@@H](N(C)C)C2)ccc1Nc1cc2c(cn1)N(C)C(=O)c1ccccc1N2C [Compound 32],–,–,–,6360 nM,–,–,–,–,–,–,–,–,–,≤ 50 nM,–,–,–,–,–,Kinase inhibition % at indicated screening concentration: ABL or ARG (ABL or ARG; screening concentration 0.1 μM): E (E is ≦35%); inhibition at 0.1 µM (JAK1; [13]): ≤ 35%; inhibition at 0.1 µM (AurA; [14]): ≤ 35%; inhibition at 0.1 µM (ERK5; [15]): 75 to 90%; Kinase inhibition % at indicated screening concentration: AMPKa1 or AMPKa2 (AMPKa1 or AMPKa2; screening concentration 0.1 μM): E (E is ≦35%); inhibition at 0.1 µM (ACK; [16]): ≤ 35%; inhibition at 0.1 µM (TAO2; [17]): ≤ 35%; Kinase inhibition % at indicated screening concentration: AurB or AurC (AurB or AurC; screening concentration 0.1 μM): E (E is ≦35%)
CCOc1cc(C(=O)N2CCN(C3CCN(C)CC3)CC2)ccc1Nc1cc2c(cn1)N(C)C(=O)c1ccccc1N2C1CC1 [Compound T79],E (E is ≦35%),≤ 35%,≤ 35%,7200 nM,≤ 50 nM,> 90%,E (E is ≦35%),≤ 35%,≤ 35%,E (E is ≦35%),–,–,–,–,–,–,–,–,–,–
CCN(CC)CCNC(=O)c1ccc(OC)c(Nc2cc3c(cn2)N(C)C(=O)c2ccccc2N3C)c1 [Compound 16],–,–,–,1870 nM,–,–,–,–,–,–,E (E is ≦35%),≤ 35%,≤ 35%,101 to 500 nM,75 to 90%,E (E is ≦35%),≤ 35%,≤ 35%,E (E is ≦35%),–
